Values of other authors, collected in patent publication US11554003B2, “Filtration devices and methods related thereto” (The Regents of the University of California, priority 2015, dated 2023).

Conditions: IAC; regardless of infused dose

In the case of `COc1cccc2c1C(=O)c1c(O)c3c(c(O)c1C2=O)C[C@@](O)(C(=O)CO)C[C@@H]3O[C@H]1C[C@H](N)[C@H](O)[C@H](C)O1` [Dox, doxorubicin], the “first pass hepatic clearance” value is given as 50-70%.
